# Source: US6946452B2, “Use of N-acetyl-D-glucosamine in the manufacture of pharmaceutical useful for treating motion sickness” (Third Military Medical University Chinese People's …, priority 2001, dated 2005)
# Key:
# [1] = in vivo
# Proteus Mirabilis = assay: Promoting wave test (bacterial bio-wave growth model); type: cell-based; conditions: final concentration of 0.5% on LB plate, 37° C., compared with control
# Excerpt: I. Promoting Wave Test of N-acetyl-D-glucosamine
# 1. Experimental Materials and Method:
# 1.1 Samples: Pure Compound of Formula (I)
# 1.2 Experimental Materials: • Strain: Proteus Mirabilis (which should comply with the following biological reaction characteristics: dynamics (+), urease (+), lactose (−), glucose (+), H2S (−), phenylalanine deaminase (+). • Culture medium: modified LB culture medium (the components of the composition are: trytones of 1%, yeast extract of 0.5%, sodium chloride 1%, glucose of 0.1%, TTC of 0.002% and pH=7.2˜7.4).
# 2. Experimental Results and Evaluation: • The experiment adopts a bio-wave model which is used to research the promoting wave function of N-acetyl-D-glucosamine. […] II. Toxicological Test of the Compound of Formula (I), including: […]
# [2] = in vivo; remark: listed apart in the source
# Excerpt: 1. acute toxicity test: including tests of administrating medicine by oral, Intravenous injection and maximum limit amount for administration;
# III. Observation of Curative Efficiency.
# motion sickness = assay: Observation of curative efficiency in patients suffering from motion sickness; type: in vivo; conditions: for Not effective (number of persons) / Effective (number of persons): 20 persons; for Effective (number of persons): 100 km by car and by small steamboat
# Description: 80 patients suffering from motion sickness were selected and randomly divided into four groups: a group to whom N-acetyl-D-glucosamine was administered in a long term (800 mg of NAG/person/day), a group to whom N-acetyl-D-glucosamine was administered in a short term (6000 mg of NAG/person/day), placebo group (6000 mg of glucose/person/day), a group to whom no medicament was administered. A double blind method was adopted, observing the curative efficiency for traveling 100 kilometers by car (its velocity was 20 kilometers/hour) and traveling 100 kilometers by a small steamboat. Compared with the situation before traveling by car, the following symptoms being relieved or removed will be judged to be effective: dizziness, nausea and vomiting.
# [3] = long term group, 800 mg of NAG/person/day
# [4] = short term group, 6000 mg of NAG/person/day
smiles,measurement,setting,value
CC(=O)N[C@H]1C(O)O[C@H](CO)[C@@H](O)[C@@H]1O (stereo partly drawn) [N-acetyl-D-glucosamine],maximum dosage with no toxicosis reaction,[1],1 g/kg
same,promoting wave function (concentric ring pattern on LB plate),Proteus Mirabilis,many fine waves on each ring emerged
same,dosage at which acute toxicosis reaction had not appeared,[2],more than 2 g/kg
same,Not effective (number of persons),motion sickness; [3],2
same,Effective (number of persons),motion sickness; [3],18
same,effectivity of preventing and treating motion sickness,motion sickness; p<0.05 vs placebo group and no-administration group,more than 90%
same,Not effective (number of persons),motion sickness; [4],1
same,Effective (number of persons),motion sickness; [4],19
